IC50 data for four compounds are collected here from ChEMBL document CHEMBL1157272, “Four aristolochic acid esters of rearranged ent-elemane sesquiterpenes from aristolochia heterophylla” (J Nat Prod, 1999).

The nature of this experiment: Cytotoxicity against human HepG2(2.2.15) cells. Type of experiment: functional, cell-based.

Each structure is given as a SMILES string.

The term IC50 denotes the concentration needed to halve the response being measured. Lower therefore signals higher potency. For `C=C[C@@]1(C)CCC=C(C[C@H](C)OC(=O)c2cc3c(c4c2c([N+](=O)[O-])cc2ccccc24)OCO3)[C@H]1C(=C)C=O` [ARISTOPHYLLIDE C], the IC50 worked out at 6.2 µM. This counts as single-digit micromolar.

Compound `C=C[C@@]1(C)CCC=C(C[C@@H](C)OC(=O)c2cc3c(c4c2c([N+](=O)[O-])cc2c(OC)cccc24)OCO3)[C@@H]1C(=C)C=O` [ARISTOPHYLLIDE B] displayed an IC50 of 9.4 µM.

Regarding `C=C[C@@]1(C)CCC=C(C[C@H](C)OC(=O)c2cc3c(c4c2c([N+](=O)[O-])cc2c(OC)cccc24)OCO3)[C@H]1C(=C)C=O` [ARISTOPHYLLIDE A], the 50% inhibitory concentration (IC50) came to 5.1 µM. For `C=C[C@@]1(C)CCC=C(C[C@@H](C)OC(=O)c2cc3c(c4c2c([N+](=O)[O-])cc2ccccc24)OCO3)[C@@H]1C(=C)C=O` [ARISTOPHYLLIDE D] the value was 13.2 µM.
